We go through two molecules from patent US6602220B1, “Miniature air-controlled drug selector and delivery device portable by small animals” (The Research Foundation of State University of New York, priority 2000, dated 2003).

For one test, the system named is neocortical neuron. The experiment in a line: Single-cell recording with microdialysis drug delivery via minivalve, neocortex of freely moving rat. The format is in vivo. On the procedure: The experiment was performed on a freely moving rat which carried the minivalve 100 of the present invention on its head as illustrated in FIG. 1.
In test [1] the test system is single neuron, in the hippocampus. Put plainly: Single-cell recording/microdialysis study with minivalve, hippocampus of freely moving rat. The test is classed as in vivo. The text has this:
Referring now to FIGS. 6a-6c, there is illustrated graphical data from a single-cell recording/microdialysis study performed with the minivalve 100 of the present invention. The recordings were made from the same single neuron, in the hippocampus of the freely moving rat 102 having the minivalve 100 mounted on its head, as illustrated in FIG. 1.

As for `CN[C@H](CC(=O)O)C(=O)O` [NMDA], in the test on neocortical neuron (500 μM NMDA via microdialysis probe, freely moving rat), the “effect on firing of a neocortical neuron, first drug perfusion” value is recorded as “brief firing rate increase at point D, followed by a silent period”. Moreover, the “time to effect after the minivalve switch” value with neocortical neuron (500 μM NMDA, first perfusion, switch from position 1 to position 2) was at most 1 min. Moreover, in the test with neocortical neuron (second NMDA delivery after wash-out), the “effect on firing of a neocortical neuron, second delivery” value is given as “ineffective”. The “effect of third exposure” value with neocortical neuron (third NMDA exposure three hours later) is on record as “clear excitatory effects associated with an EEG seizure”. Further, the “effect on firing of hippocampal neuron, subsequent application” value in test [1] (NMDA application through the probe after the second ethanol delivery) was “initial firing rate increase, followed by electrical silence”.

Regarding `CCO` [ethanol], the “effect on cell firing in the neocortex” value in the test with neocortical neuron (ethanol delivered via microdialysis for two minutes, freely moving rat) is given as “instant cell firing suppressant effect”. In the test with neocortical neuron (ethanol, neocortex), the “time to effect after the minivalve was switched” value was “within one minute”. Besides, in test [1] (first ethanol perfusion into hippocampus recording site), the “effect on firing of hippocampal neuron, first perfusion” value is “suppressed the firing of the recorded neuron”. Further, in test [1] (first ethanol perfusion, hippocampus), the “time to effect after minivalve activation” value was “as quickly as two minutes”. Moreover, the “effect on firing of hippocampal neuron, second delivery” value in test [1] (second ethanol delivery, same neuron) was “ineffective”.
